Experimental data as given in ChEMBL document CHEMBL3400114, “The design, synthesis and biological evaluation of conformationally restricted 4-substituted-2,6-dimethylfuro[2,3-d]pyrimidines as multi-targeted receptor tyrosine kinase and microtubule inhibitors as potential antitumor agents” (Bioorg Med Chem, 2015).

How the values were obtained:
HOP-62 = test: Growth inhibition of human HOP62 cells after 48 hrs by sulforhodamine B assay; assay type: functional; details: HOP-62, 48 h
NCI-H226 = test: Growth inhibition of human NCI-H226 cells after 48 hrs by sulforhodamine B assay; assay type: functional; details: NCI-H226, 48 h
U-251 = test: Growth inhibition of human U251 cells after 48 hrs by sulforhodamine B assay; assay type: functional; details: U-251, 48 h
786-0 = test: Growth inhibition of human 786-0 cells after 48 hrs by sulforhodamine B assay; assay type: functional; details: 786-0, 48 h
K562 = test: Growth inhibition of human K562 cells after 48 hrs by sulforhodamine B assay; assay type: functional; details: K562, 48 h
M14 = test: Growth inhibition of human M14 cells after 48 hrs by sulforhodamine B assay; assay type: functional; details: M14, 48 h
[1] = Growth inhibition of human OVCAR5 cells after 48 hrs by sulforhodamine B assay; assay type: functional; details: OVCAR-5, 48 h
[2] = Growth inhibition of human COLO205 cells after 48 hrs by sulforhodamine B assay; assay type: functional; details: COLO 205, 48 h
A-431 = test: Antiproliferative activity against human A431 cells after 48 hrs by sulforhodamine B assay; assay type: functional, cell-based; details: A-431, 48 h
[3] = Growth inhibition of human OVCAR3 cells after 48 hrs by sulforhodamine B assay; assay type: functional; details: OVCAR-3, 48 h
KM12 = test: Growth inhibition of human KM12 cells after 48 hrs by sulforhodamine B assay; assay type: functional; details: KM12, 48 h
SNB-75 = test: Growth inhibition of human SNB75 cells after 48 hrs by sulforhodamine B assay; assay type: functional; details: SNB-75, 48 h
MDA-MB-435 [4] = test: Growth inhibition of human MDA-MB-435 cells after 48 hrs by sulforhodamine B assay; assay type: functional; details: MDA-MB-435, 48 h
MDA-MB-468 = test: Growth inhibition of human MDA-MB-468 cells after 48 hrs by sulforhodamine B assay; assay type: functional; details: MDA-MB-468, 48 h
TK-10 = test: Growth inhibition of human TK10 cells after 48 hrs by sulforhodamine B assay; assay type: functional; details: TK-10, 48 h
[5] = Growth inhibition of human MOLT4 cells after 48 hrs by sulforhodamine B assay; assay type: functional; details: MOLT-4, 48 h
HT-29 = test: Growth inhibition of human HT-29 cells after 48 hrs by sulforhodamine B assay; assay type: functional; details: HT-29, 48 h
CCRF-CEM = test: Growth inhibition of human CCRF-CEM cells after 48 hrs by sulforhodamine B assay; assay type: functional
SNB-19 = test: Growth inhibition of human SNB19 cells after 48 hrs by sulforhodamine B assay; assay type: functional; details: SNB-19, 48 h
[6] = Induction of microtubule depolymerization in rat A10 cells after 18 hrs by indirect immunofluorescence assay; assay type: cell-based
NCI/ADR-RES = test: Growth inhibition of human NCI/ADR-RES cells after 48 hrs by sulforhodamine B assay; assay type: functional
[7] = Antiangiogenic activity in VEGF-165 and bFGF-stimulated chicken embryo chorioallantoic membrane assessed as inhibition of blood vessel formation after 40 hrs by microscopy; assay type: functional, tissue-based, Gallus gallus
[8] = Growth inhibition of human LOXIMVI cells after 48 hrs by sulforhodamine B assay; assay type: functional; details: LOX IMVI
[9] = Growth inhibition of human […] cells after 48 hrs by sulforhodamine B assay; assay type: functional
SW-620 = test: Growth inhibition of human SW620 cells after 48 hrs by sulforhodamine B assay; assay type: functional; details: SW-620, 48 h
NCI-H460 = test: Growth inhibition of human NCI-H460 cells after 48 hrs by sulforhodamine B assay; assay type: functional; details: NCI-H460, 48 h
MCF7 = test: Growth inhibition of human MCF7 cells after 48 hrs by sulforhodamine B assay; assay type: functional; details: MCF7, 48 h
[10] = Antiproliferative activity against human SKOV3 cells overexpressing wild type beta3 tubulin after 48 hrs by sulforhodamine B assay; assay type: functional, cell-based; details: SK-OV-3, 48 h
[11] = Growth inhibition of human OVCAR8 cells after 48 hrs by sulforhodamine B assay; assay type: functional; details: OVCAR-8, 48 h
[12] = Ratio of EC50 for microtubule depolymerization in rat A10 cells to IC50 for human MDA-MB-435 cells
MDA-MB-231 = test: Growth inhibition of human MDA-MB-231 cells after 48 hrs by sulforhodamine B assay; assay type: functional; details: MDA-MB-231, 48 h
[13] = Growth inhibition of human BT549 cells after 48 hrs by sulforhodamine B assay; assay type: functional; details: BT-549, 48 h
SK-OV-3 [14] = test: Resistance ratio of IC50 for human SKOV3-MDR1-M6/6 cells to IC50 for human SKOV3 cells; assay type: functional
[15] = Growth inhibition of human SF295 cells after 48 hrs by sulforhodamine B assay; assay type: functional; details: SF-295, 48 h
NCI-H23 = test: Growth inhibition of human NCI-H23 cells after 48 hrs by sulforhodamine B assay; assay type: functional; details: NCI-H23, 48 h
SK-MEL-5 = test: Growth inhibition of human SK-MEL-5 cells after 48 hrs by sulforhodamine B assay; assay type: functional; details: SK-MEL-5, 48 h
MDA-MB-435 [16] = test: Antiproliferative activity against human MDA-MB-435 cells after 48 hrs by sulforhodamine B assay; assay type: functional, cell-based; details: MDA-MB-435, 48 h
[17] = Growth inhibition of human RXF393 cells after 48 hrs by sulforhodamine B assay; assay type: functional; details: RXF 393, 48 h
[18] = Growth inhibition of human UACC62 cells after 48 hrs by sulforhodamine B assay; assay type: functional; details: UACC-62, 48 h
[19] = Growth inhibition of human HCT116 cells after 48 hrs by sulforhodamine B assay; assay type: functional; details: HCT-116, 48 h
HeLa [20] = test: Resistance ratio of IC50 for human HeLa cells overexpressing wild type beta3 tubulin to IC50 for human HeLa cells; assay type: functional
[21] = Growth inhibition of human SF539 cells after 48 hrs by sulforhodamine B assay; assay type: functional; details: SF-539, 48 h
ACHN = test: Growth inhibition of human ACHN cells after 48 hrs by sulforhodamine B assay; assay type: functional
[22] = Antiproliferative activity against human SKOV3-MDR1-M6/6 cells overexpressing wild type beta3 tubulin after 48 hrs by sulforhodamine B assay; assay type: functional, cell-based; details: SKOV3-MDR1-M6/6, 48 h
IGROV-1 = test: Growth inhibition of human IGROV1 cells after 48 hrs by sulforhodamine B assay; assay type: functional; details: IGROV-1, 48 h
HeLa [23] = test: Antiproliferative activity against human HeLa cells after 48 hrs by sulforhodamine B assay; assay type: functional, cell-based
SK-MEL-2 = test: Growth inhibition of human SK-MEL-2 cells after 48 hrs by sulforhodamine B assay; assay type: functional; details: SK-MEL-2, 48 h
CAKI-1 = test: Growth inhibition of human Caki1 cells after 48 hrs by sulforhodamine B assay; assay type: functional; details: CAKI-1, 48 h
DU-145 = test: Growth inhibition of human DU145 cells after 48 hrs by sulforhodamine B assay; assay type: functional; details: DU-145, 48 h
SR = test: Growth inhibition of human SR cells after 48 hrs by sulforhodamine B assay; assay type: functional
NCI-H522 = test: Growth inhibition of human NCI-H522 cells after 48 hrs by sulforhodamine B assay; assay type: functional; details: NCI-H522, 48 h
[24] = Growth inhibition of human HCT15 cells after 48 hrs by sulforhodamine B assay; assay type: functional; details: HCT-15, 48 h
[25] = Growth inhibition of human EKVX cells after 48 hrs by sulforhodamine B assay; assay type: functional
SN12C = test: Growth inhibition of human SN12C cells after 48 hrs by sulforhodamine B assay; assay type: functional
[26] = Growth inhibition of human HOP92 cells after 48 hrs by sulforhodamine B assay; assay type: functional; details: HOP-92, 48 h
HL-60(TB) = test: Growth inhibition of human HL-60(TB) cells after 48 hrs by sulforhodamine B assay; assay type: functional; details: HL-60, 48 h
SK-OV-3 [27] = test: Growth inhibition of human SKOV3 cells after 48 hrs by sulforhodamine B assay; assay type: functional; details: SK-OV-3, 48 h
SF-268 = test: Growth inhibition of human SF268 cells after 48 hrs by sulforhodamine B assay; assay type: functional; details: SF-268, 48 h
[28] = Growth inhibition of human Hs 578T cells after 48 hrs by sulforhodamine B assay; assay type: functional
[29] = Growth inhibition of human PC3 cells after 48 hrs by sulforhodamine B assay; assay type: functional; details: PC-3, 48 h
[30] = Growth inhibition of human OVCAR4 cells after 48 hrs by sulforhodamine B assay; assay type: functional; details: OVCAR-4, 48 h
HeLa [31] = test: Antiproliferative activity against human HeLa cells overexpressing wild type beta3 tubulin after 48 hrs by sulforhodamine B assay; assay type: functional, cell-based
[32] = target: Platelet-derived growth factor receptor beta (Homo sapiens, UniProt P09619); test: Inhibition of PDGFR-beta in human U251 cells compound pretreated for 60 min before PDGF-BB stimulation for 10 mins by phosphotyrosine ELISA cytoblot method; assay type: cell-based, U-251
Chain of Platelet-derived growth factor receptor beta (P09619 whole entry): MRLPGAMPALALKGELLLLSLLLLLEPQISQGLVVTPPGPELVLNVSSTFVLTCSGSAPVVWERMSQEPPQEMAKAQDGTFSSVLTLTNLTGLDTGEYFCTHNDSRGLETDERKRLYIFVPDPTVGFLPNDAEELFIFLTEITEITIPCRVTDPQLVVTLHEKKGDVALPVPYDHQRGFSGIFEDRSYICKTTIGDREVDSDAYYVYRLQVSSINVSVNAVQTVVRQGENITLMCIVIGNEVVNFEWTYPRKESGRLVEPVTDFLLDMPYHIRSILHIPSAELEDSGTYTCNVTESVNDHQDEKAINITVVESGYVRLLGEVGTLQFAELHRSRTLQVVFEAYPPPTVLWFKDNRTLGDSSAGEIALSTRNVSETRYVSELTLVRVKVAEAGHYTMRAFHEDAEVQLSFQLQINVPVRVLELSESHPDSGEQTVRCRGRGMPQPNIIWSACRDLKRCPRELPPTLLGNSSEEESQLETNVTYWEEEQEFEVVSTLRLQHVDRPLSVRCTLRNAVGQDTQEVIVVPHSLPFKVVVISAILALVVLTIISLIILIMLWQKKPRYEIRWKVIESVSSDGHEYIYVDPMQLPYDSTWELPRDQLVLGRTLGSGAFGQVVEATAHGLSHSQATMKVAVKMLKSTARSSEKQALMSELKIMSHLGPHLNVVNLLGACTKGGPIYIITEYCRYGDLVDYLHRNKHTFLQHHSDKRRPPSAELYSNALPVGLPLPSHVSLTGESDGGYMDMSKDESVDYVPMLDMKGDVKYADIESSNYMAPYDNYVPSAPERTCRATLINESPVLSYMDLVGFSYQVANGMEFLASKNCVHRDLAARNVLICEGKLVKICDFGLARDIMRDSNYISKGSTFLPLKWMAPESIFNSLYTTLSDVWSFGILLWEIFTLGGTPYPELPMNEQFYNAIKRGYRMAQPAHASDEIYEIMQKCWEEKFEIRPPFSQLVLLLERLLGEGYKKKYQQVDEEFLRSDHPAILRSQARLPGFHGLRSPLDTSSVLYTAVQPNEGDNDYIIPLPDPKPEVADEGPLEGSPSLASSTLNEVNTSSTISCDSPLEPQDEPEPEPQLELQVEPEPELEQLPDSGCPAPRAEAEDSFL

[33] = target: Vascular endothelial growth factor receptor 2 (Homo sapiens, UniProt P35968); assay type: cell-based, U-251
Chain of Vascular endothelial growth factor receptor 2 (P35968 whole entry): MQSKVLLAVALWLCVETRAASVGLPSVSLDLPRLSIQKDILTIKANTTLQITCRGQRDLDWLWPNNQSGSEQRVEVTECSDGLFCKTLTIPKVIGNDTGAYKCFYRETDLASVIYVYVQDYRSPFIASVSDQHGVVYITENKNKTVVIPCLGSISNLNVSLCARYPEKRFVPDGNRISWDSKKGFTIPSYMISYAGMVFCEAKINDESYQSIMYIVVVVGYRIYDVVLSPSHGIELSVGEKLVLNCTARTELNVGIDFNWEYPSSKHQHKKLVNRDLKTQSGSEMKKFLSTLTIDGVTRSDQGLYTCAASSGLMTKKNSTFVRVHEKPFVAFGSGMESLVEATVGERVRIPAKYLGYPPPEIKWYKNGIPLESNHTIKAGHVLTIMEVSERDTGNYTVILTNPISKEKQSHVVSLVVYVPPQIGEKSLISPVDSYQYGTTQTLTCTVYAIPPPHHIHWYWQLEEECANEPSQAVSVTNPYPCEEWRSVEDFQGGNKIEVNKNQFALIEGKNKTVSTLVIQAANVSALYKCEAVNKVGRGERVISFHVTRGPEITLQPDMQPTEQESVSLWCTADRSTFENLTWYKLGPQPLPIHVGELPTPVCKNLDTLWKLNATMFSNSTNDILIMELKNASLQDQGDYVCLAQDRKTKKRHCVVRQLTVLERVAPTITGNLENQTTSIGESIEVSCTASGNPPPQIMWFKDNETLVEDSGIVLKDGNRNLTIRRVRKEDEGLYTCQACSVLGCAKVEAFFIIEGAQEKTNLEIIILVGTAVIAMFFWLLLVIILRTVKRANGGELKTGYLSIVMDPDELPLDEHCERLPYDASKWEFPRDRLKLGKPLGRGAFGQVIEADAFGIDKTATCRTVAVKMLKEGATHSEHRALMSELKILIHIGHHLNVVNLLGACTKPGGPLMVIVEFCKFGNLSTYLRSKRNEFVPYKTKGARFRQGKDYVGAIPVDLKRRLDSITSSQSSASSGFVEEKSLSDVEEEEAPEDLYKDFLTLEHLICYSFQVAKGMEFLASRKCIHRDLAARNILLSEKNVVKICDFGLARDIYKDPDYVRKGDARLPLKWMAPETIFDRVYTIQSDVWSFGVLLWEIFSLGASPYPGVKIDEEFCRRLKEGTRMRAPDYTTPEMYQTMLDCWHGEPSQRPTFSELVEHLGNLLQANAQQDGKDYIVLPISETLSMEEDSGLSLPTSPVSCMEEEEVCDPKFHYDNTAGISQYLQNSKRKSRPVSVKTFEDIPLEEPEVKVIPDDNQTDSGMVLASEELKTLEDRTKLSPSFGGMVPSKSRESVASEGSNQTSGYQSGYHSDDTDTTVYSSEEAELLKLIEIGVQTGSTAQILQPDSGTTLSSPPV

Cc1nc(N(C)c2ccc3c(c2)CCO3)c2cc(C)oc2n1
GI50 (HOP-62): 0.0396 µM | GI50 (NCI-H226): 0.162 µM | GI50 (U-251): 0.0397 µM | GI50 (786-0): 0.0804 µM | GI50 (K562): 0.0317 µM | GI50 (M14): 0.0348 µM | GI50 [1]: 0.262 µM | GI50 [2]: 0.0403 µM | IC50 (A-431): 0.0383 µM | GI50 [3]: 0.0245 µM | GI50 (KM12): 0.0401 µM | GI50 (SNB-75): 0.0304 µM | GI50 (MDA-MB-435 [4]): 0.014 µM | GI50 (MDA-MB-468): 0.0221 µM | GI50 (TK-10): 0.0502 µM | GI50 [5]: 0.0767 µM | GI50 (HT-29): 0.0324 µM | GI50 (CCRF-CEM): 0.0581 µM | GI50 (SNB-19): 0.0565 µM | EC50 [6]: 0.606 µM | GI50 (NCI/ADR-RES): 0.0265 µM | IC50 [7]: 14 µM | GI50 [8]: 0.0456 µM | GI50 [9]: 0.0542 µM | GI50 (SW-620): 0.0416 µM | GI50 (NCI-H460): 0.042 µM | GI50 (MCF7): 0.0402 µM | IC50 [10]: 0.12 µM | GI50 [11]: 0.063 µM | Ratio [12]: 6 | GI50 (MDA-MB-231): 0.148 µM | GI50 [13]: 0.0772 µM | Ratio IC50 (SK-OV-3 [14]): 1.3 | GI50 [15]: 0.0305 µM | GI50 (NCI-H23): 0.0439 µM | GI50 (SK-MEL-5): 0.0314 µM | IC50 (MDA-MB-435 [16]): 0.0962 µM | GI50 [17]: 0.0212 µM | GI50 [18]: 0.0613 µM | GI50 [19]: 0.0451 µM | Ratio IC50 (HeLa [20]): 0.9 | GI50 [21]: 0.0316 µM | GI50 (ACHN): 0.0642 µM | IC50 [22]: 0.155 µM | GI50 (IGROV-1): 0.0629 µM | IC50 (HeLa [23]): 0.105 µM | GI50 (SK-MEL-2): 0.0264 µM | GI50 (CAKI-1): 0.0401 µM | GI50 (DU-145): 0.0441 µM | GI50 (SR): 0.0366 µM | GI50 (NCI-H522): 0.0129 µM | GI50 [24]: 0.0389 µM | GI50 [25]: 0.07 µM | GI50 (SN12C): 0.0972 µM | GI50 [26]: 0.0458 µM | GI50 (HL-60(TB)): 0.0276 µM | GI50 (SK-OV-3 [27]): 0.0376 µM | GI50 (SF-268): 0.0139 µM | GI50 [28]: 0.031 µM | GI50 [29]: 0.0522 µM | GI50 [30]: 0.0834 µM | IC50 (HeLa [31]): 0.094 µM

COc1ccc(/C=C\c2cc(OC)c(OC)c(OC)c2)cc1O [COMBRETASTATIN A4]
EC50 [6]: 0.0098 µM | IC50 [10]: 0.0069 µM | IC50 (MDA-MB-435 [16]): 0.005 µM | IC50 [22]: 0.003 µM

COc1cc(N(C)c2nc(C)nc3oc(C)cc23)cc(OC)c1OC
IC50 (A-431): > 0.3 µM | EC50 [6]: > 10 µM | IC50 [7]: > 300 µM

COc1ccc2c(ccn2-c2nc(C)nc3oc(C)cc23)c1
IC50 (A-431): > 0.3 µM | EC50 [6]: > 10 µM | IC50 [7]: > 300 µM

COc1ccc2c(c1)CCN2c1nc(C)nc2oc(C)cc12
IC50 (A-431): 0.0422 µM | EC50 [6]: > 10 µM

COc1ccc(N(C)c2nc(C)nc3oc(C)cc23)cc1OC
IC50 (A-431): 0.0097 µM

Cc1nc(N(C)c2ccc3c(c2)OCO3)c2cc(C)oc2n1
IC50 (A-431): 0.0489 µM | EC50 [6]: > 10 µM | IC50 [7]: 38.2 µM

COc1ccc(N(C)c2nc(C)nc3oc(C)cc23)c(OC)c1
IC50 (A-431): 0.0171 µM | IC50 [32]: 0.0404 µM | IC50 [33]: 0.0323 µM

CC(=O)O[C@H]1C(=O)[C@@]2(C)[C@H]([C@H](OC(=O)c3ccccc3)[C@]3(O)C[C@H](OC(=O)[C@H](O)[C@@H](NC(=O)c4ccccc4)c4ccccc4)C(C)=C1C3(C)C)[C@]1(OC(C)=O)CO[C@@H]1C[C@@H]2O [PACLITAXEL]
IC50 [10]: 0.0063 µM | IC50 (MDA-MB-435 [16]): 0.0033 µM | IC50 (HeLa [31]): 0.0329 µM
